How the values were obtained:
Type in all cases: in vivo
Alopecurus myosuroides [1] = experiment: Herbicidal activity, postemergence test; details: post; sprayed onto seedling plants, 800 g of active material per hectare; evaluated 2 weeks after treatment
Summary of the method: (§1)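 Spray dose 800 g a.i./ha in 900 L/ha; acetone stock with 0.4% Triton X-155, water-diluted. Pre: sown loam soil, read at 3 wk. Post: seedling plants, read at 2 wk. Visual 0-9 rating vs untreated.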

Ipomoea hederacea [2] = experiment: Herbicidal activity, postemergence test; details: post; sprayed onto seedling plants, 800 g of active material per hectare; evaluated 2 weeks after treatment
Summary of the method: as §1

Echinochloa crus-galli [3] = experiment: Herbicidal activity, postemergence test; details: post; sprayed onto seedling plants, 800 g of active material per hectare; evaluated 2 weeks after treatment
Summary of the method: as §1

Lamium purpureum [4] = experiment: Herbicidal activity, postemergence test; details: post; sprayed onto seedling plants, 800 g of active material per hectare; evaluated 2 weeks after treatment
Summary of the method: as §1

Glycine max [5] = experiment: Herbicidal activity, postemergence test; details: post; sprayed onto seedling plants, 800 g of active material per hectare; evaluated 2 weeks after treatment
Summary of the method: as §1

Helianthus annuus [6] = experiment: Herbicidal activity, postemergence test; details: post; sprayed onto seedling plants, 800 g of active material per hectare; evaluated 2 weeks after treatment
Summary of the method: as §1

Ambrosia artemisifolia [7] = experiment: Herbicidal activity, postemergence test; details: post; sprayed onto seedling plants, 800 g of active material per hectare; evaluated 2 weeks after treatment
Summary of the method: as §1

Triticum aestivum [8] = experiment: Herbicidal activity, postemergence test; details: post; sprayed onto seedling plants, 800 g of active material per hectare; evaluated 2 weeks after treatment
Summary of the method: as §1

Amaranthus retroflexus [9] = experiment: Herbicidal activity, postemergence test; details: post; sprayed onto seedling plants, 800 g of active material per hectare; evaluated 2 weeks after treatment
Summary of the method: as §1

Stellaria media [10] = experiment: Herbicidal activity, postemergence test; details: post; sprayed onto seedling plants, 800 g of active material per hectare; evaluated 2 weeks after treatment
Summary of the method: as §1

Zea mays [11] = experiment: Herbicidal activity, postemergence test; details: post; sprayed onto seedling plants, 800 g of active material per hectare; evaluated 2 weeks after treatment
Summary of the method: as §1

Gossypium hirsutum [12] = experiment: Herbicidal activity, postemergence test; details: post; sprayed onto seedling plants, 800 g of active material per hectare; evaluated 2 weeks after treatment
Summary of the method: as §1

Veronica persica [13] = experiment: Herbicidal activity, postemergence test; details: post; sprayed onto seedling plants, 800 g of active material per hectare; evaluated 2 weeks after treatment
Summary of the method: as §1

Abutilon theophrasti [14] = experiment: Herbicidal activity, postemergence test; details: post; sprayed onto seedling plants, 800 g of active material per hectare; evaluated 2 weeks after treatment
Summary of the method: as §1

Hordeum vulgare [15] = experiment: Herbicidal activity, postemergence test; details: post; sprayed onto seedling plants, 800 g of active material per hectare; evaluated 2 weeks after treatment
Summary of the method: as §1

Viola arvensis [16] = experiment: Herbicidal activity, postemergence test; details: post; sprayed onto seedling plants, 800 g of active material per hectare; evaluated 2 weeks after treatment
Summary of the method: as §1

Galium aparine [17] = experiment: Herbicidal activity, postemergence test; details: post; sprayed onto seedling plants, 800 g of active material per hectare; evaluated 2 weeks after treatment
Summary of the method: as §1

Setaria viridis [18] = experiment: Herbicidal activity, postemergence test; details: post; sprayed onto seedling plants, 800 g of active material per hectare; evaluated 2 weeks after treatment
Summary of the method: as §1

Alopecurus myosuroides [19] = experiment: Herbicidal activity, preemergence test; details: pre; sprayed onto soil, 800 g of active material per hectare; evaluated 3 weeks after treatment
Summary of the method: as §1

Ipomoea hederacea [20] = experiment: Herbicidal activity, preemergence test; details: pre; sprayed onto soil, 800 g of active material per hectare; evaluated 3 weeks after treatment
Summary of the method: as §1

Echinochloa crus-galli [21] = experiment: Herbicidal activity, preemergence test; details: pre; sprayed onto soil, 800 g of active material per hectare; evaluated 3 weeks after treatment
Summary of the method: as §1

Lamium purpureum [22] = experiment: Herbicidal activity, preemergence test; details: pre; sprayed onto soil, 800 g of active material per hectare; evaluated 3 weeks after treatment
Summary of the method: as §1

Glycine max [23] = experiment: Herbicidal activity, preemergence test; details: pre; sprayed onto soil, 800 g of active material per hectare; evaluated 3 weeks after treatment
Summary of the method: as §1

Helianthus annuus [24] = experiment: Herbicidal activity, preemergence test; details: pre; sprayed onto soil, 800 g of active material per hectare; evaluated 3 weeks after treatment
Summary of the method: as §1

Ambrosia artemisifolia [25] = experiment: Herbicidal activity, preemergence test; details: pre; sprayed onto soil, 800 g of active material per hectare; evaluated 3 weeks after treatment
Summary of the method: as §1

Triticum aestivum [26] = experiment: Herbicidal activity, preemergence test; details: pre; sprayed onto soil, 800 g of active material per hectare; evaluated 3 weeks after treatment
Summary of the method: as §1

Amaranthus retroflexus [27] = experiment: Herbicidal activity, preemergence test; details: pre; sprayed onto soil, 800 g of active material per hectare; evaluated 3 weeks after treatment
Summary of the method: as §1

Zea mays [28] = experiment: Herbicidal activity, preemergence test; details: pre; sprayed onto soil, 800 g of active material per hectare; evaluated 3 weeks after treatment
Summary of the method: as §1

Gossypium hirsutum [29] = experiment: Herbicidal activity, preemergence test; details: pre; sprayed onto soil, 800 g of active material per hectare; evaluated 3 weeks after treatment
Summary of the method: as §1

Veronica persica [30] = experiment: Herbicidal activity, preemergence test; details: pre; sprayed onto soil, 800 g of active material per hectare; evaluated 3 weeks after treatment
Summary of the method: as §1

Abutilon theophrasti [31] = experiment: Herbicidal activity, preemergence test; details: pre; sprayed onto soil, 800 g of active material per hectare; evaluated 3 weeks after treatment
Summary of the method: as §1

Hordeum vulgare [32] = experiment: Herbicidal activity, preemergence test; details: pre; sprayed onto soil, 800 g of active material per hectare; evaluated 3 weeks after treatment
Summary of the method: as §1

Viola arvensis [33] = experiment: Herbicidal activity, preemergence test; details: pre; sprayed onto soil, 800 g of active material per hectare; evaluated 3 weeks after treatment
Summary of the method: as §1

Galium aparine [34] = experiment: Herbicidal activity, preemergence test; details: pre; sprayed onto soil, 800 g of active material per hectare; evaluated 3 weeks after treatment
Summary of the method: as §1

Setaria viridis [35] = experiment: Herbicidal activity, preemergence test; details: pre; sprayed onto soil, 800 g of active material per hectare; evaluated 3 weeks after treatment
Summary of the method: as §1

Stellaria media [36] = experiment: Herbicidal activity, preemergence test; details: pre; sprayed onto soil, 800 g of active material per hectare; evaluated 3 weeks after treatment
Summary of the method: as §1

| SMILES | ALOMY control rating (0-9) (Alopecurus myosuroides [1]) | IPOHE control rating (0-9) (Ipomoea hederacea [2]) | ECHCG control rating (0-9) (Echinochloa crus-galli [3]) | LAMPU control rating (0-9) (Lamium purpureum [4]) | GLXMA control rating (0-9) (Glycine max [5]) | HELAN control rating (0-9) (Helianthus annuus [6]) | AMBEL control rating (0-9) (Ambrosia artemisifolia [7]) | TRZAW control rating (0-9) (Triticum aestivum [8]) | AMARE control rating (0-9) (Amaranthus retroflexus [9]) | STEME control rating (0-9) (Stellaria media [10]) | ZEAMX control rating (0-9) (Zea mays [11]) | GOSHI control rating (0-9) (Gossypium hirsutum [12]) | VERPE control rating (0-9) (Veronica persica [13]) | ABUTH control rating (0-9) (Abutilon theophrasti [14]) | HORVW control rating (0-9) (Hordeum vulgare [15]) | VIOAR control rating (0-9) (Viola arvensis [16]) | GALAP control rating (0-9) (Galium aparine [17]) | SETVI control rating (0-9) (Setaria viridis [18]) | ALOMY control rating (0-9) (Alopecurus myosuroides [19]) | IPOHE control rating (0-9) (Ipomoea hederacea [20]) | also measured |
| --- | --- | --- | --- | --- | --- | --- | --- | --- | --- | --- | --- | --- | --- | --- | --- | --- | --- | --- | --- | --- | --- |
| CC(NC(=O)c1nnc(-c2ccccc2)o1)c1cccs1 (racemic) [Example 1] | 2 (slight effect) | 5 (definite injury) | 6 (herbicidal effect) | 4 (injury) | 8 (approaching complete kill) | 9 (complete kill) | 8 (approaching complete kill) | 2 (slight effect) | 9 (complete kill) | 9 (complete kill) | 3 (moderate effect) | 9 (complete kill) | 9 (complete kill) | 8 (approaching complete kill) | 5 (definite injury) | 9 (complete kill) | 6 (herbicidal effect) | 9 (complete kill) | 0 (no effect) | 5 (definite injury) | ECHCG control rating (0-9) (Echinochloa crus-galli [21]): 0 (no effect); LAMPU control rating (0-9) (Lamium purpureum [22]): 7 (good herbicidal effect); GLXMA control rating (0-9) (Glycine max [23]): 0 (no effect); HELAN control rating (0-9) (Helianthus annuus [24]): 0 (no effect); AMBEL control rating (0-9) (Ambrosia artemisifolia [25]): 0 (no effect); TRZAW control rating (0-9) (Triticum aestivum [26]): 0 (no effect); AMARE control rating (0-9) (Amaranthus retroflexus [27]): 0 (no effect); ZEAMX control rating (0-9) (Zea mays [28]): 0 (no effect); GOSHI control rating (0-9) (Gossypium hirsutum [29]): 0 (no effect); VERPE control rating (0-9) (Veronica persica [30]): 5 (definite injury); ABUTH control rating (0-9) (Abutilon theophrasti [31]): 0 (no effect); HORVW control rating (0-9) (Hordeum vulgare [32]): 0 (no effect); VIOAR control rating (0-9) (Viola arvensis [33]): 6 (herbicidal effect); GALAP control rating (0-9) (Galium aparine [34]): 0 (no effect); SETVI control rating (0-9) (Setaria viridis [35]): 4 (injury) |
| CC(NC(=O)c1nnc(C(C)(C)C)o1)c1cccs1 (racemic) [Example 5] | 3 (moderate effect) | 6 (herbicidal effect) | 4 (injury) | 1 (trace effect) | 8 (approaching complete kill) | 8 (approaching complete kill) | 9 (complete kill) | 4 (injury) | 5 (definite injury) | 8 (approaching complete kill) | 4 (injury) | 9 (complete kill) | 9 (complete kill) | 8 (approaching complete kill) | 4 (injury) | 7 (good herbicidal effect) | 5 (definite injury) | 6 (herbicidal effect) | 4 (injury) | 0 (no effect) | ECHCG control rating (0-9) (Echinochloa crus-galli [21]): 6 (herbicidal effect); LAMPU control rating (0-9) (Lamium purpureum [22]): 2 (slight effect); GLXMA control rating (0-9) (Glycine max [23]): 0 (no effect); HELAN control rating (0-9) (Helianthus annuus [24]): 0 (no effect); AMBEL control rating (0-9) (Ambrosia artemisifolia [25]): 1 (trace effect); TRZAW control rating (0-9) (Triticum aestivum [26]): 0 (no effect); AMARE control rating (0-9) (Amaranthus retroflexus [27]): 5 (definite injury); STEME control rating (0-9) (Stellaria media [36]): 8 (approaching complete kill); ZEAMX control rating (0-9) (Zea mays [28]): 0 (no effect); GOSHI control rating (0-9) (Gossypium hirsutum [29]): 0 (no effect); VERPE control rating (0-9) (Veronica persica [30]): 8 (approaching complete kill); ABUTH control rating (0-9) (Abutilon theophrasti [31]): 7 (good herbicidal effect); HORVW control rating (0-9) (Hordeum vulgare [32]): 0 (no effect); VIOAR control rating (0-9) (Viola arvensis [33]): 6 (herbicidal effect); GALAP control rating (0-9) (Galium aparine [34]): 0 (no effect); SETVI control rating (0-9) (Setaria viridis [35]): 8 (approaching complete kill) |

From patent publication EP0726263A2, “Herbicidal (1,3,4)oxadiazoles and thiadiazoles” (American Cyanamid Company, priority 1995, dated 1996)
